From ChEMBL document CHEMBL5321223, “Effects and mechanism of action of Chrysanthemum morifolium (Jinsi Huangju) on hyperlipidemia and non-alcoholic fatty liver disease” (Eur J Med Chem, 2023)

Columns and labels:
[1] = target: T1, Pancreatic triacylglycerol lipase (Homo sapiens) (UniProt P16233); assay: Inhibition of Pancreatic lipase (unknown origin) using 4-methylumbelleallyl oleate as substrate at 50 uM by microplate reader assay
T1 sequence (whole entry): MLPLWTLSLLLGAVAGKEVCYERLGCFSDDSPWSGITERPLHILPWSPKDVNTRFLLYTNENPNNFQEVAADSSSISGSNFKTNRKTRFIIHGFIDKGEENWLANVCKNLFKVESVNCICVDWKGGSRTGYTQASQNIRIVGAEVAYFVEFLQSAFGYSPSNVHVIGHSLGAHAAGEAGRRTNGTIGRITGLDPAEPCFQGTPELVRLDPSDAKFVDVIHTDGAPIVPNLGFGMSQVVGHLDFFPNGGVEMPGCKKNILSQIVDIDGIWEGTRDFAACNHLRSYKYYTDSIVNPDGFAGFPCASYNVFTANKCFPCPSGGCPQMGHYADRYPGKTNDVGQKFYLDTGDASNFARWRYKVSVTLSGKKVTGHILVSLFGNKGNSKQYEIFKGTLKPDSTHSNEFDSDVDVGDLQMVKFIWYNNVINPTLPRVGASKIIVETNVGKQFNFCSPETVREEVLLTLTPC

[2] = target: T1, Pancreatic triacylglycerol lipase (Homo sapiens); assay: Inhibition of Pancreatic lipase (unknown origin) using 4-methylumbelleallyl oleate as substrate at 5 uM by microplate reader assay
HepG2 [3] = assay: Cytotoxicity against human HepG2 cells assessed as reduction in cell survival at 50 uM; type: toxicity, cell-based; settings: hepg2, 50 µM
HepG2 [4] = assay: Hypolipidemic activity in sodium oleate and sodium palmitate induced human HepG2 cells assessed as decrease in intracellular lipid content at 5 uM by Oil Red O staining based assay; type: functional; design: scale not given: the % may be the effect or the level left
HepG2 [5] = assay: Hypolipidemic activity in sodium oleate and sodium palmitate induced human HepG2 cells assessed as decrease in intracellular lipid content at 50 uM by Oil Red O staining based assay; type: functional; design: scale not given: the % may be the effect or the level left
HepG2 [6] = assay: Hypolipidemic activity in sodium oleate and sodium palmitate induced human HepG2 cells assessed as decrease in intracellular lipid content at 0.025 mg/ml by Oil Red O staining based assay; type: functional; design: scale not given: the % may be the effect or the level left

| Compound | inhibition [1] | inhibition [2] | Activity (HepG2 [3]) | Activity (HepG2 [4]) | Activity (HepG2 [5]) | Activity (HepG2 [6]) |
| --- | --- | --- | --- | --- | --- | --- |
| O=c1cc(-c2ccc(O)c(O)c2)oc2cc(O)cc(O)c12 [LUTEOLIN] | 41.2% | 27.4% | Toxic | 91.6% |  |  |
| CC[C@H](C)C(=O)O[C@H]1C[C@@H](C)C=C2C=C[C@H](C)[C@H](CC[C@@H]3C[C@@H](O)CC(=O)O3)[C@H]21 [LOVASTATIN] |  |  |  | 76.9% | 89.3% | 97% |
